Consider one molecule from PMC6597546, “Identification of a potent benzoxaborole drug candidate for treating cryptosporidiosis” (Nature Communications, 2019).

The test system of one series is MDR1 (P-gp). The experiment in a line: in vitro. The settings on record: dog.
Series [1] relates to 109 off-target enzymes and receptors. As to the kind of experiment: Lead Profiling and Adverse Reaction Enzyme off-target panel. The format is binding. The settings on record: 10 µM. The protocol: In vitro safety profiling studies were conducted by Ricerca Biosciences (Taipei, Taiwan) and WuXi AppTec (Suzhou, China). Ricerca performed a Lead Profiling and Adverse Reaction Enzyme panel of 109 off-target enzymes and receptors. This included the hERG K+ ion channel, which is associated with cardiac tachyarrhythmias, and used a radioligand binding competition format with 10 µM test compound for 1 h at 25 °C. For the enzyme and receptor panel, competitive inhibition at 10 µM of test compound was the most common assay format. The AMES bacterial reverse mutation assay detects point mutations in Escherichia coli and Salmonella typhimurium as an indicator of mutagenic activity. Bacterial strains were obtained from Molecular Toxicology (Boone, NC).

“Also recorded” adds a separate entry of the source.

Take `CC1(C)OB(O)c2cc(NC(=O)c3ccc(-n4cccn4)cc3Cl)ccc21` [AN7973]: the Papp (usually the rate of passage across a membrane or cell layer, normalised by area and donor concentration) in the series with MDR1 (P-gp) (MDCK-MDR1, MDCK-MDR1 Papp) worked out at 56.5 ×10⁻⁶ cm/s; in the series on MDR1 (P-gp) (MDCK-MDR1, MDCK-MDR1 Papp + Pgp inhibitor), 60.6 ×10⁻⁶ cm/s. Also, in series [1], the “In vitro Receptor Panel (109 targets)” value is recorded as “Negative; also recorded: no significant findings”.
